Assay results taken from patent publication US11622964B2, “Method for destroying cellular mechanical homeostasis and promoting regeneration and repair of tissues and organs, and use thereof” (INSTITUTE OF ZOOLOGY, CHINESE ACADEMY OF SCIENCES, priority 2018, dated 2023).
“Also recorded” adds a separate entry of the source.

Columns and labels:
human fibroblasts = experiment: Cellular mechanical homeostasis and cell softening in human fibroblasts (phalloidin staining, immunofluorescence, quantitative PCR); assay type: cell-based
Description: FIG. 1A is a schematic diagram of laser confocal scanning.

[1] = system: bleomycin-induced skin sclerosis; experiment: Bleomycin-induced scleroderma model; assay type: in vivo, mice; conditions: 1-3 mg/kg/day intraperitoneal
Description: Scleroderma is a connective tissue disease characterized by localized or diffuse fibrosis of the skin and internal organs, thereby hardening and shrinking. The disease may cause multisystem injury, its exact cause and pathogenesis are still unclear, and there is no effective treatment means. […] One week after injection of bleomycin, the skin at the injection site on the back of mice begins to thicken and harden, and has poor elasticity; there is no change in hair growth until the end of the injection; meanwhile, induration and incrustation occurs at the injection site, accompanying with superficial ulcers. As for the shaved injection area on the back of the mice in the saline control group, the hair grows continuously, and no significant skin hardening and thickening phenomenon is observed, as shown in FIG. 7B. Treatment group (Bleb): intraperitoneal administration of myosin inhibitor (−)-blebbistatin (1-3 mg/kg/day, dissolved in 2-5% DMSO+30% PEG400+2% Tween 80+ddH2O); control group (con): without (−)-blebbistatin but containing the same amount of DMSO. […] Further experiments confirm that the myosin inhibitor (−)-blebbistatin promotes melanin accumulation in the induration zone and the growth of new hair, as shown in FIG. 7C.

[2] = system: bleomycin-induced pulmonary fibrosis; experiment: Bleomycin-induced pulmonary fibrosis model; assay type: in vivo, mice; conditions: 1-3 mg/kg/day
Method: In the invention, bleomycin (BLM) is instilled into pulmonary tracheal of ICR or C57Bl/6 mice to successfully construct a mouse model of pulmonary fibrosis, and the mice are treated by intraperitoneal administration of myosin inhibitor (−)-blebbistatin. […] The detailed processes of injecting bleomycin are as follows:
(1) Dilution of bleomycin: 50 mg/ml stock solution is diluted 25 times to obtain a final concentration of 2 mg/ml.
(2) The mice are anesthetized by intraperitoneal injection of 0.5% sodium pentobarbital (100 μl/10 g b.w.).
(3) The neck skin is disinfected by 75% alcohol, cutting the neck skin and bluntly separating the mucosa and muscles of the trachea, exposing the trachea, and taking care not to damage the thyroid.
(4) 50 μl (20 g body weight) of bleomycin is injected into the interval of tracheal cartilage by an insulin syringe at a dose of 5 mg/kg. After the needle is pulled out, putting the console upright, rotating left and right for 1 min, and then the skin is sutured. The mice eat food and drink water freely after spontaneously awakening.
The mice are identified and divided into two groups: DMSO (indicated as “Con” in FIG. 8) and (−)-blebbistatin (indicated as “Bleb” in FIG. 8, 1-3 mg/kg/day) are respectively administrated by intraperitoneal injection, wherein they are respectively dissolved in 2-5% DMSO+30% PEG400+2% Tween80+ddH2O. The survival status of the mice is recorded with intraperitoneal injection/day, tail vein injection/3 days. The result is shown in FIG. 8B, all the mice in the control group died on day 8 of treatment, while the mice in the Bleb treatment group have a survival rate of 40% on day 15 of treatment.
(6) Small animal CT scanning is performed on D8 (modeling on D14), the samples are taken and fixed after heart perfusion, slicing the samples and performing H&E and Sirius red staining. The result is shown in FIG. 8D, (−)-blebbistatin inhibits tissue damage and fibrosis during bleomycin-induced lung damage.

[3] = system: human hepatic stellate cells (hLX-2); experiment: TGF-β1-induced transformation of human hepatic stellate cells into myofibroblasts; assay type: cell-based; conditions: 20 μM, 3 ng/ml TGF-β1, 7 days
Description: In this example, cell models for in vitro fibrosis are respectively built to activate mouse hepatic stellate Cells (mHSCs, FIG. 13(B)), mouse embryonic fibroblasts (MEFs FIG. 13(C)), mouse adult liver, lung, and heart-derived primary mesenchymal cells (priMCs, FIG. 13(D)), and human hepatic stellate cells (hLX-2, FIG. 13(E)) into myofibroblasts through the induction of TGF-β1. The specific experimental procedure is as shown in FIG. 9A: a medium containing 10% serum is used for the initial cell culture; after 24 hours the medium is replaced with low serum medium (or pre-starvation treatment for 16 hours) while adding 3 ng/ml TGF-β1 with DMSO or Bleb (20 μM); after 7 days the expression of myofibroblast activation marker protein (Acta2), collagen (Col1a1, Col1a2, Col3a1, and Col1a2), and matrix metalloproteinases and inhibitors (collagenases: MmP8, and MmP13; gelatinases: MmP2, and MmP9; a metalloproteinase inhibitor: Timp1/2/3) are identified.

**Q.** How did the “EZH2 protein level and localization” value (human fibroblasts) turn out when `Cc1ccc2c(c1)C(=O)[C@]1(O)CCN(c3ccccc3)C1=N2` [(−)-blebbistatin] was run?
**A.** The value was “down-regulated and it is localized at the cytoplasm”.

**Q.** And the nucleus morphology (human fibroblasts; 20 μM, vs DMSO control)?
**A.** Its nucleus morphology is “irregular folds”.

**Q.** What about the “stress fibers in the cell (phalloidin staining)” value (human fibroblasts; 20 μM, vs DMSO control) of the same compound?
**A.** Its value is “disintegrated”.

**Q.** And the “cells with obvious nuclear localization of stress effect protein YAP1/TAZ” value (human fibroblasts; after drug treatment)?
**A.** The value was 35%.

**Q.** What about the “proteins related to regulation of cellular mechanical hardness (quantitative PCR)” value (human fibroblasts; after small molecule treatment) of the same compound?
**A.** Its value is “significantly down-regulated”.

**Q.** And the “modification of H3K27 trimethylation (immunofluorescence)” value (human fibroblasts; day 4)?
**A.** The value was “significantly reduced”.

**Q.** And the “active transcriptional region labeled with fluorouridine” value (human fibroblasts; three biological replicates)?
**A.** Its value is “also distributed near the periphery of the nucleus”.

**Q.** What about the “heterochromatin HP1 proteins” value (human fibroblasts; vs DMSO control) of the same compound?
**A.** Its value is “the control group is significantly stronger than the experimental group”.

**Q.** And the “FGF9 expression (immunofluorescence)” value [1]?
**A.** Its value is “more FGF9 is expressed”.

**Q.** And the “KRT17 positive cells relative to KRT18 positive cells (immunostaining)” value [1]?
**A.** Its value is “much more”.

**Q.** What about the “NeuN expression in the induration zone (neural fate)” value [1] of the same compound?
**A.** The value was “expressed in some cells”.

**Q.** What about the “accumulation of mesenchymal fibers (H&E and Masson staining)” value [1] of the same compound?
**A.** The value was “significantly reduces”.

**Q.** What about the “epidermal and dermal thickness” value [1] of the same compound?
**A.** The value was “significantly reduces”.

**Q.** What about the “hair follicle cell proliferation (Ki-67 staining)” value [1] of the same compound?
**A.** The value was “promotes”.

**Q.** And the “hair follicle regeneration (KRT17/PCNA co-immunostaining)” value [1]?
**A.** Its value is “promotes hair follicle regeneration”.

**Q.** What about the “melanin accumulation in the induration zone and growth of new hair” value [1] of the same compound?
**A.** The value was “promotes”.

**Q.** And the “number of hair follicles or glands” value [1]?
**A.** Its value is “promotes”.

**Q.** What about the “degree of induration and incrustation” value ([1]; after 3 weeks of treatment) of the same compound?
**A.** Its value is “significantly reduced”.

**Q.** And the “decrease in lung volume (small animal CT)” value [2]?
**A.** Its value is “inhibits the decrease”.

**Q.** What about the “lung tissue damage (H&E staining)” value [2] of the same compound?
**A.** Its value is “inhibits”.

**Q.** What about the “pulmonary fibrosis (Sirius red staining, statistical analysis)” value [2] of the same compound?
**A.** The value was “inhibiting pulmonary fibrosis; also recorded: significantly improves; also recorded: inhibits”.

**Q.** What about the “survival of mice with pulmonary fibrosis (in words)” value [2] of the same compound?
**A.** The value was “significantly promoting survival”.

**Q.** What about the “decrease in lung volume (small animal CT)” value ([2]; listed as Bleb) of the same compound?
**A.** The value was “significantly inhibits”.

**Q.** And the “lung tissue damage (H&E staining)” value ([2]; listed as Bleb)?
**A.** Its value is “relieves lung damage”.

**Q.** What about the “pulmonary fibrosis (Sirius red staining, statistical analysis)” value ([2]; listed as Bleb) of the same compound?
**A.** Its value is “relieves pulmonary fibrosis”.

**Q.** And the “survival of mice with pulmonary fibrosis (in words)” value ([2]; listed as Bleb)?
**A.** Its value is “significantly increases”.

**Q.** What about the survival rate ([2]; day 15 of treatment, 10 mice per group) of the same compound?
**A.** The survival rate was 40%.

**Q.** What about the “TGF-β1 induced transformation into myofibroblasts and extracellular matrix synthesis” value [3] of the same compound?
**A.** Its value is “significantly inhibits”.

**Q.** And the inhibitors of metalloproteinases [3]?
**A.** The inhibitors of metalloproteinases was “down-regulation”.

**Q.** And the “metalloproteinases for degrading extracellular matrix” value [3]?
**A.** Its value is “promoting the up-regulation”.
